Earlier results on 1 compound are cited in patent US20110091889A1, “CENTROSOME-ASSAY” (4SC AG, priority 2008, published 2011).

Each structure is given as a SMILES string.

In the data set the target is T1, Eg5 (Homo sapiens, UniProt P52732).
T1 sequence (P52732 1-1056): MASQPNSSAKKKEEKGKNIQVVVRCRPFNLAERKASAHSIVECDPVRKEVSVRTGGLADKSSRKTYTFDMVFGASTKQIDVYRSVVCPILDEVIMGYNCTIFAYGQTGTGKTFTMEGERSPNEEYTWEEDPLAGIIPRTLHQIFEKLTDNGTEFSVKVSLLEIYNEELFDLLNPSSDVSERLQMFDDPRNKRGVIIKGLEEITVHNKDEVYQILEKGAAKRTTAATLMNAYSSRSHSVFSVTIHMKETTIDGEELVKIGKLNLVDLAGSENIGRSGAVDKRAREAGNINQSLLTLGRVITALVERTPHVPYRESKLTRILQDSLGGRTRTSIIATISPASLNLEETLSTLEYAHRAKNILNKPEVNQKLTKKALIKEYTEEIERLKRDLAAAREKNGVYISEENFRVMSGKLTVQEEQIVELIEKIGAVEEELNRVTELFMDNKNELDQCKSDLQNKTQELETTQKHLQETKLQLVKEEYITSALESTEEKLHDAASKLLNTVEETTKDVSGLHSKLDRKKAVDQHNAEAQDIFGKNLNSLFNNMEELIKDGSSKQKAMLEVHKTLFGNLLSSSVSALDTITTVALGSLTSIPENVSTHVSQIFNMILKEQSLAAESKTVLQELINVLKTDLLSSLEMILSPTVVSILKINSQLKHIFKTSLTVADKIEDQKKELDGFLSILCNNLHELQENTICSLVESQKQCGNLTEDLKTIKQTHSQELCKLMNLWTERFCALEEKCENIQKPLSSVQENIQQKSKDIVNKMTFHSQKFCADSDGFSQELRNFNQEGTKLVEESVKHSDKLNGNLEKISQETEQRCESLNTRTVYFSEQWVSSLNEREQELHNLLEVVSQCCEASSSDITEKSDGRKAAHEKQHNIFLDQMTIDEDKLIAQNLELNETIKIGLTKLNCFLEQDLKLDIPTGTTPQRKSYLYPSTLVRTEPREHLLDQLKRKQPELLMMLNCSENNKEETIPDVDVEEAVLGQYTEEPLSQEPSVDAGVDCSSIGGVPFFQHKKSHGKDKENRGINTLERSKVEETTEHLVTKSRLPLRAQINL
The following applies: as compared to the (R)-enantiomer; in vitro and in vivo.

As for `CCOC(=O)C1=C(C)NC(=S)N[C@H]1c1cccc(O)c1` [(S)-monastrol], the “relative potency as inhibitor of Eg5 activity” value was “more potent inhibitor of Eg5 activity”.
